EC50, AC50 and IC50 data for 5 molecules are collected here from ChEMBL document CHEMBL1201862, “PubChem BioAssay data set” (2004).

The target in one assay is T1, Streptokinase A (Streptococcus pyogenes serotype M1, UniProt P10520).
T1 sequence (P10520 whole entry): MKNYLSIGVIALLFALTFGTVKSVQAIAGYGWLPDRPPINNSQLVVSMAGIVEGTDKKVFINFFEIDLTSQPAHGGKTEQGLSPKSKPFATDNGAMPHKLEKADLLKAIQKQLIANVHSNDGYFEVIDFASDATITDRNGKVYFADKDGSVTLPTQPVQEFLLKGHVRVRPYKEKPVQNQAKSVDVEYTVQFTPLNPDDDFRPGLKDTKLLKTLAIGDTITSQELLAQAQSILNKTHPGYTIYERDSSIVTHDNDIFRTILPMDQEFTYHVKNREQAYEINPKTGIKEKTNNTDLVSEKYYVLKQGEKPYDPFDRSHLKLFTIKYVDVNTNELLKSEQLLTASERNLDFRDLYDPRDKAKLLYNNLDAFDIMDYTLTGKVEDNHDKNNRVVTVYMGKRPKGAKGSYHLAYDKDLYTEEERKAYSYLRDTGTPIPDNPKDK
Put plainly: S. pyogenes streptokinase expression inhibitors, potency, dose response, plasminogen activation absorbance, OD405 (AID 1914).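 Also: secreted streptokinase activity via plasminogen activation per viability signal from cell pellet.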 Type of assay: functional, Streptococcus pyogenes M1 GAS.

The target of assay [1] is T2, Replicative DNA helicase DnaB (Mycobacterium tuberculosis, UniProt P9WMR3).
T2 sequence (P9WMR3 whole entry): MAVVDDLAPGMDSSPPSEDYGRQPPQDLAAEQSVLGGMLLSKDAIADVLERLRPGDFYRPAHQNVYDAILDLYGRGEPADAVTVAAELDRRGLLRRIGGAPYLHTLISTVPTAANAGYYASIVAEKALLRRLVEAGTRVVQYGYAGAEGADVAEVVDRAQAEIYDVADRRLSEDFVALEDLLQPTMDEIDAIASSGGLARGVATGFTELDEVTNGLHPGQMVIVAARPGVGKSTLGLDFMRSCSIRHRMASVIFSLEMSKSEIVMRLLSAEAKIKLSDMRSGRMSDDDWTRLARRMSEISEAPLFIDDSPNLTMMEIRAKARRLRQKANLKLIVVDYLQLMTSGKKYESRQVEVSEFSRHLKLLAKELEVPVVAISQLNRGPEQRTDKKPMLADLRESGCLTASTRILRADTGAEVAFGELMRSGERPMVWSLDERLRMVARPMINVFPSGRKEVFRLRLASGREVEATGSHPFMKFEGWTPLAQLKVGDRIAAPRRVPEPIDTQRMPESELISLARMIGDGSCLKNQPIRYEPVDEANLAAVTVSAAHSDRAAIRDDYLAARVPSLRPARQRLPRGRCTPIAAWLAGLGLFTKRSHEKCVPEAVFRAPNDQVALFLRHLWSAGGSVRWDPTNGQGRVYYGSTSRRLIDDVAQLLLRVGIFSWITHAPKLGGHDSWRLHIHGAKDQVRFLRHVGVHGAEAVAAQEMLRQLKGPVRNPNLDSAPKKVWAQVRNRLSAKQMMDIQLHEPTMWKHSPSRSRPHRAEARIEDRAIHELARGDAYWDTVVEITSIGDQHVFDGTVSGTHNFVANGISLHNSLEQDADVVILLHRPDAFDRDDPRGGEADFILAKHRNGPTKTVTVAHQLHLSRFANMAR
Put plainly: DnaB intein splicing inhibitors, dose response, biochemical, cell-free fluorescence (AID 449749). Format: functional.

A further assay concerns the target T3, Protein RecA (Mycobacterium tuberculosis, UniProt P9WHJ3).
T3 sequence (P9WHJ3 whole entry): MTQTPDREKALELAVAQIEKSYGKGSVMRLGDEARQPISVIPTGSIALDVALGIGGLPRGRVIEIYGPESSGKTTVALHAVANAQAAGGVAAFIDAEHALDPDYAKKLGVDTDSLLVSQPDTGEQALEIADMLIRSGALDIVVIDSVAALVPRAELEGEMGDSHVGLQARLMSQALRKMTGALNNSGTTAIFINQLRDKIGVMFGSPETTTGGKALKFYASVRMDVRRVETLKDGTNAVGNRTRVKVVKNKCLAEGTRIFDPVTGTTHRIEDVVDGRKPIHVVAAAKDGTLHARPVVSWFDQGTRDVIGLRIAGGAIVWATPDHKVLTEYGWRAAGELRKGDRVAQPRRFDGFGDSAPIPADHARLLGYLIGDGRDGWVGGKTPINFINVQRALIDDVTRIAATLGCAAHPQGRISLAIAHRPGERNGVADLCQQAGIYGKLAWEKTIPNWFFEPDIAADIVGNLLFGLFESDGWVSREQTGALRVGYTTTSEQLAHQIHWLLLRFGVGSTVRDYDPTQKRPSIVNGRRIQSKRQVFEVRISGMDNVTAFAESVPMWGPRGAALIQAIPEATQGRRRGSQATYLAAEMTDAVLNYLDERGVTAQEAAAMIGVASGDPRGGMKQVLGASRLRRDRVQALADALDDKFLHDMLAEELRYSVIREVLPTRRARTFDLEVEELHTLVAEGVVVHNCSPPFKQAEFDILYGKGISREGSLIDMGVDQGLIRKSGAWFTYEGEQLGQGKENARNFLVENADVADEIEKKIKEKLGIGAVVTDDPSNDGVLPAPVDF
Put plainly: Fluorescence Cell-Free Homogeneous Dose Retest to Identify Inhibitors of RecA-Intein Splicing Activity. [Related pubchem assays (depositor defined):AID2097, AID2223, AID489010, AID492950]. Type of assay: functional.

Assay [2] in a line: Counterscreen for AddAB inhibitors: absorbance-based bacterial cell-based high throughput dose response assay for inhibitors of bacterial viability. [Related pubchem assays (depositor defined):AID435030, AID449728, AID449731, AID488942, AID488955, AID488956]. Format: functional. Background: A counterscreen serves to expose hits that act by an unwanted route or on another target.

The nature of assay [3]: NIH-3T3 fibroblast cytotoxicity, dose response, cytotoxicity control, cell-based, fluorescence, Alamar Blue, secondary assay (AID 2327).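 Also: NIH-3T3 mouse fibroblasts cultured with fluconazole at 8 µg/mL.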 Type of assay: functional.

Calls of active or inactive are those of the source. Rule as the data show it, for most assays here: actives have a measured EC50 and inactives only a lower limit. A value given as a limit tells only on which side of the number the result lay.

By EC50 is commonly meant the midpoint of the concentration-response curve. Usually AC50 stands for the concentration giving half of the maximal activity seen. Consider `COc1ccc(CC2=CC(=O)c3ccccc3C2=O)cc1`, for which the EC50 was > 150 µM (not active) at Streptokinase A and 3.37 µM (active) on Protein RecA. Further, the concentration at half-maximal activity (AC50) in assay [1] was 7.49 µM (active).
Consider `Oc1cc(-c2cccc3ccccc23)[nH]n1`, for which the AC50 in assay [1] is 2.39 µM (active). Also, the concentration giving a half-maximal response (EC50) at Protein RecA was 0.834 µM (active).
Turning to `c1coc(-c2nnc(-c3ccco3)nn2)c1`, the AC50 in assay [1] was 5.79 µM (active). For the same molecule, at Protein RecA, the EC50 was 7.01 µM (active).
The IC50 is the concentration needed to halve the response being measured. As to `O=C(Nc1cccc(NC(=O)c2ccccc2Cl)c1)c1ccc([N+](=O)[O-])o1`, the EC50 on Streptokinase A was > 150 µM (not active); in assay [3] it was 12.1 µM (inconclusive). In addition, the IC50 in assay [2] is > 119 µM (inactive).
Regarding `Cn1c(O)c(/C=N/NC(=O)c2cc3ccccc3cc2O)c2ccccc21`, in assay [2], the IC50 is > 119 µM (inactive). The EC50 in assay [3] is > 160 µM (inconclusive).
